Measurements as given in ChEMBL document CHEMBL2203178, “Design and one-pot synthesis of new 7-acyl camptothecin derivatives as potent cytotoxic agents” (Bioorg Med Chem Lett, 2012).

How the values were obtained:
Type in all cases: functional, cell-based
[1] = Cytotoxicity against human KBVIN cells by SRB assay
DU-145 = assay: Cytotoxicity against human DU145 cells by SRB assay
KB = assay: Cytotoxicity against human KB cells by SRB assay
A549 = assay: Cytotoxicity against human A549 cells by SRB assay

CC[C@@]1(O)C(=O)OCc2c1cc1n(c2=O)Cc2c-1nc1ccccc1c2C(=O)c1cc(OC)c(OC)c(OC)c1
IC50 [1]: 1.17 µM | IC50 (DU-145): 2.11 µM | IC50 (KB): 3.14 µM | IC50 (A549): 1 µM

CC[C@@]1(O)C(=O)OCc2c1cc1n(c2=O)Cc2c-1nc1ccccc1c2C(=O)c1cc(OC)ccc1OC
IC50 [1]: 2.25 µM | IC50 (DU-145): 2.06 µM | IC50 (KB): 2.92 µM | IC50 (A549): 1.01 µM

CC[C@@]1(O)C(=O)OCc2c1cc1n(c2=O)Cc2c-1nc1ccccc1c2C(=O)c1ccc(C)c(O)c1
IC50 [1]: 1.14 µM | IC50 (DU-145): 1.54 µM | IC50 (KB): 1.73 µM | IC50 (A549): 1.02 µM

CC[C@@]1(O)C(=O)OCc2c1cc1n(c2=O)Cc2c-1nc1ccccc1c2C(=O)c1ccc(C)c(C)c1
IC50 [1]: 4.62 µM | IC50 (DU-145): 1.7 µM | IC50 (KB): 2.49 µM | IC50 (A549): 1 µM

CC[C@@]1(O)C(=O)OCc2c1cc1n(c2=O)Cc2c-1nc1ccccc1c2C(=O)c1ccc(O)cc1
IC50 [1]: 1.79 µM | IC50 (DU-145): 2.99 µM | IC50 (KB): 12.5 µM | IC50 (A549): 2.51 µM

CC[C@@]1(O)C(=O)OCc2c1cc1n(c2=O)Cc2c-1nc1ccccc1c2C(=O)c1ccc2c(c1)OCO2
IC50 [1]: 1.77 µM | IC50 (DU-145): 2.6 µM | IC50 (KB): 11.8 µM | IC50 (A549): 1.13 µM

CC[C@@]1(O)C(=O)OCc2c1cc1n(c2=O)Cc2c-1nc1ccccc1c2C(=O)c1ccc(OC)cc1
IC50 [1]: 3.14 µM | IC50 (DU-145): 1.61 µM | IC50 (KB): 4.78 µM | IC50 (A549): 0.911 µM

CC[C@@]1(O)C(=O)OCc2c1cc1n(c2=O)Cc2c-1nc1ccccc1c2C(=O)c1ccc(Cl)cc1
IC50 [1]: 1.12 µM | IC50 (DU-145): 1.68 µM | IC50 (KB): 3.07 µM | IC50 (A549): 0.949 µM

CC[C@@]1(O)C(=O)OCc2c1cc1n(c2=O)Cc2c-1nc1ccccc1c2C(=O)c1ccccc1
IC50 [1]: 11.9 µM | IC50 (DU-145): 11 µM | IC50 (KB): 13.3 µM | IC50 (A549): 11 µM

CC[C@@]1(O)C(=O)OCc2c1cc1n(c2=O)Cc2c-1nc1ccccc1c2C(=O)c1ccoc1
IC50 [1]: 1.8 µM | IC50 (DU-145): 2.01 µM | IC50 (KB): 2.73 µM | IC50 (A549): 2.02 µM

CCC(=O)c1c2c(nc3ccccc13)-c1cc3c(c(=O)n1C2)COC(=O)[C@]3(O)CC
IC50 [1]: 0.0287 µM | IC50 (DU-145): 0.0898 µM | IC50 (KB): 0.0592 µM | IC50 (A549): 0.0317 µM

CC[C@@]1(O)C(=O)OCc2c1cc1n(c2=O)Cc2c-1nc1ccccc1c2C(C)=O
IC50 [1]: 0.131 µM | IC50 (DU-145): 0.0402 µM | IC50 (KB): 0.0233 µM | IC50 (A549): 0.0154 µM

CC[C@@]1(O)C(=O)OCc2c1cc1n(c2=O)Cc2cc3ccccc3nc2-1 [CAMPTOTHECIN]
IC50 (DU-145): 0.0287 µM

CCc1c2c(nc3ccc(OC(=O)N4CCC(N5CCCCC5)CC4)cc13)-c1cc3c(c(=O)n1C2)COC(=O)[C@]3(O)CC [IRINOTECAN]
IC50 [1]: > 20 µM | IC50 (DU-145): 9.3 µM
